Source: PMC5428509, “Irreversible inhibition of BTK kinase by a novel highly selective inhibitor CHMFL-BTK-11 suppresses inflammatory response in rheumatoid arthritis model” (Scientific Reports, 2017)

How the values were obtained:
Assay in all cases: biochemical
Design in all cases: KinomeScan competition binding panel (DiscoveRx), percent of control at 1 uM
Details in all cases: read-out: Percent Control
PFPK5(P.falciparum) = target: T1, PFPK5(P.falciparum) (Plasmodium falciparum, UniProt P61075)
T1 construct: gene CRK2
T1 sequence (P61075 whole entry): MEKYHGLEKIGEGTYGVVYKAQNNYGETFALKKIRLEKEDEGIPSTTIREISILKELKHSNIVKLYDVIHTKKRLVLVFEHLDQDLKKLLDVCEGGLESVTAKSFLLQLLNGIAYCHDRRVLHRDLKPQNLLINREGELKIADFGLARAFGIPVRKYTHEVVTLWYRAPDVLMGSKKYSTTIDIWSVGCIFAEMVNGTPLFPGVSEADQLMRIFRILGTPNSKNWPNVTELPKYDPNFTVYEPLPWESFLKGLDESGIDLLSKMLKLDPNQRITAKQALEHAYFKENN

ABL1-phosphorylated = target: T2, ABL1-phosphorylated (Homo sapiens, UniProt P00519)
T2 construct: phosphorylated
Source text: (§1) In order to further confirm the binding mode, we then tested the compounds in the BTK wild-type (wt) and BTK C481S mutant with immunoblotting by looking at the BTK Y551 auto-phosphorylation. […] In addition, a covalent bond was preferred to form between the […] acrylamide and Cys-481 near the hinge binding area, which further confirmed its irreversible binding mode (Fig. 1d). We next investigated CHMFL-BTK-11′s selectivity profile in 456 kinases/mutants with KinomeScan^TM technology.

PRP4 = target: T3, PRP4 (Homo sapiens, UniProt Q13523)
T3 construct: gene PRPF4B
T3 sequence (Q13523 whole entry): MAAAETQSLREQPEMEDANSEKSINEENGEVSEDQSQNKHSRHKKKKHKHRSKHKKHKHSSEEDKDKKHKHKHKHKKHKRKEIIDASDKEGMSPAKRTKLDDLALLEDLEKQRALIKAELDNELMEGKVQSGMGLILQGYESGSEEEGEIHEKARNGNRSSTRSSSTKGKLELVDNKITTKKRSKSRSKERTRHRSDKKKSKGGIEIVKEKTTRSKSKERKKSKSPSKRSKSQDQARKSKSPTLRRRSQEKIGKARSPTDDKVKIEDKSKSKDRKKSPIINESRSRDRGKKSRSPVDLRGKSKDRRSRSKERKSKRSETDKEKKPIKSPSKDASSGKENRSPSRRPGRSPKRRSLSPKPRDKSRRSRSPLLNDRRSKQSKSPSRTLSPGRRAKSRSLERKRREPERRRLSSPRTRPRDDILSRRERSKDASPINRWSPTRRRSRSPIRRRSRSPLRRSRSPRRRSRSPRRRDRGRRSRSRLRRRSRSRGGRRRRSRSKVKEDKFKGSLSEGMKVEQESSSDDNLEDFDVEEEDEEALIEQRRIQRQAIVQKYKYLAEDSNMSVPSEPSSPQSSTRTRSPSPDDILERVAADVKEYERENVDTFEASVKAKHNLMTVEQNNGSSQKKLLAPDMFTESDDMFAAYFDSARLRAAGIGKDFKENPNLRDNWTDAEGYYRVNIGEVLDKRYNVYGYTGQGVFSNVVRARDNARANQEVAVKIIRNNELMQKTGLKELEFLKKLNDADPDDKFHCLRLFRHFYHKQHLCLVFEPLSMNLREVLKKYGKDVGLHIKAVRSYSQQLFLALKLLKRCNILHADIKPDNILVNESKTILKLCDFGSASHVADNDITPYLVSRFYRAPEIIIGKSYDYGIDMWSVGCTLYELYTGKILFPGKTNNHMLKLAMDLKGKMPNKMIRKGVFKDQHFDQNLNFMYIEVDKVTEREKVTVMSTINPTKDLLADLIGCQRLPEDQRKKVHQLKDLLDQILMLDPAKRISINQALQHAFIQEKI
Source text: as §1

FLT3(R834Q) = FLT3(R834Q) (Homo sapiens, UniProt P36888, R834Q)
Source text: as §1

PIK3CA(H1047Y) = PIK3CA(H1047Y) (Homo sapiens, UniProt P42336, H1047Y)
PIK3CA(H1047Y), sequence (P42336 whole entry H1047Y): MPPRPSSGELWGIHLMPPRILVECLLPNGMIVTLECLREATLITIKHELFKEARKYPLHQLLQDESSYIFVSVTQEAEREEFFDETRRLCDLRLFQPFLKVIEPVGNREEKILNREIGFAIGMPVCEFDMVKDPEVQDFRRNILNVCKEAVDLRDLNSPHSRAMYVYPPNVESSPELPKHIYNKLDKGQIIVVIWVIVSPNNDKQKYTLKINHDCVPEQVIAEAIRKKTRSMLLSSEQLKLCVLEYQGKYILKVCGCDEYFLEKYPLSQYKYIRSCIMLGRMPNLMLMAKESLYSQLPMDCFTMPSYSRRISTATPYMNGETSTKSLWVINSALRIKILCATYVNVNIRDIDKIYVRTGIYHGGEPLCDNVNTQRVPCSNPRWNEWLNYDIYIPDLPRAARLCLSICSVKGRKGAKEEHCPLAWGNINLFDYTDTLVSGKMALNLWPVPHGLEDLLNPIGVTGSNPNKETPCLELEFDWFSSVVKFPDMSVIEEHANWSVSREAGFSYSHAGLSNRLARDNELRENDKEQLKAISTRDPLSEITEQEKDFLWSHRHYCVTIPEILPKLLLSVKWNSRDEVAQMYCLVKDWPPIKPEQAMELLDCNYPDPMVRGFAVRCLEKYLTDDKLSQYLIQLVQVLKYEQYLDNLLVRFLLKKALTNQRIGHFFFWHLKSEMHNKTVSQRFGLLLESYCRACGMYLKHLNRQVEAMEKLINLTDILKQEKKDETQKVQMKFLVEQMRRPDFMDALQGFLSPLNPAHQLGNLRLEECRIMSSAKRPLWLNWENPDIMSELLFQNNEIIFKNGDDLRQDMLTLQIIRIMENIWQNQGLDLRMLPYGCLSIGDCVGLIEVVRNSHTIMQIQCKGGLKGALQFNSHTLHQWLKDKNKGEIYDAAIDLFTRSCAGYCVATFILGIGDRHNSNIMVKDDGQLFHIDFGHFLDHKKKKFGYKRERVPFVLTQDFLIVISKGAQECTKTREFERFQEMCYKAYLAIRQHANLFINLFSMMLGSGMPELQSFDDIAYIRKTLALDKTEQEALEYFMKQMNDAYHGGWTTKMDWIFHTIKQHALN
Source text: as §1

ERK8 = target: T4, ERK8 (Homo sapiens, UniProt Q8TD08)
T4 construct: gene MAPK15
Source text: as §1

BRSK1 = BRSK1 (Homo sapiens, UniProt Q8TDC3)
Source text: as §1

PIP5K1A = PIP5K1A (Homo sapiens, UniProt Q99755)
Source text: as §1

AMPK-alpha1 = target: T5, AMPK-alpha1 (Homo sapiens, UniProt Q13131)
T5 construct: gene PRKAA1
T5 sequence (Q13131 whole entry): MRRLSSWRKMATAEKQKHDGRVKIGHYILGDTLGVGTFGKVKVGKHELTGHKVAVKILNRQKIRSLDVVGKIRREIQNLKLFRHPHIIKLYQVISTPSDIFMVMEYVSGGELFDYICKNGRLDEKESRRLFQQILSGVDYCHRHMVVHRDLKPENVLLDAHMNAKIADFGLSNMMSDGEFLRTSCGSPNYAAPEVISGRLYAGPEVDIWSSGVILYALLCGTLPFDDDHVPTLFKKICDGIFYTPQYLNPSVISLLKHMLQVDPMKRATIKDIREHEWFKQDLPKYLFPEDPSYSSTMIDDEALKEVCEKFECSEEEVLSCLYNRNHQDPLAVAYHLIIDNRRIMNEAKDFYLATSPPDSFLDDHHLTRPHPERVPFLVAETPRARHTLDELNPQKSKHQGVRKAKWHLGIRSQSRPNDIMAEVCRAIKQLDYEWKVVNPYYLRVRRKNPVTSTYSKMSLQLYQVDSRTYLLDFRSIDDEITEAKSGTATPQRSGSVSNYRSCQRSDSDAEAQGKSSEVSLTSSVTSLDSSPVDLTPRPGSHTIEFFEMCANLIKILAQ
Source text: as §1

DYRK2 = DYRK2 (Homo sapiens, UniProt Q92630)
DYRK2, sequence (Q92630 whole entry): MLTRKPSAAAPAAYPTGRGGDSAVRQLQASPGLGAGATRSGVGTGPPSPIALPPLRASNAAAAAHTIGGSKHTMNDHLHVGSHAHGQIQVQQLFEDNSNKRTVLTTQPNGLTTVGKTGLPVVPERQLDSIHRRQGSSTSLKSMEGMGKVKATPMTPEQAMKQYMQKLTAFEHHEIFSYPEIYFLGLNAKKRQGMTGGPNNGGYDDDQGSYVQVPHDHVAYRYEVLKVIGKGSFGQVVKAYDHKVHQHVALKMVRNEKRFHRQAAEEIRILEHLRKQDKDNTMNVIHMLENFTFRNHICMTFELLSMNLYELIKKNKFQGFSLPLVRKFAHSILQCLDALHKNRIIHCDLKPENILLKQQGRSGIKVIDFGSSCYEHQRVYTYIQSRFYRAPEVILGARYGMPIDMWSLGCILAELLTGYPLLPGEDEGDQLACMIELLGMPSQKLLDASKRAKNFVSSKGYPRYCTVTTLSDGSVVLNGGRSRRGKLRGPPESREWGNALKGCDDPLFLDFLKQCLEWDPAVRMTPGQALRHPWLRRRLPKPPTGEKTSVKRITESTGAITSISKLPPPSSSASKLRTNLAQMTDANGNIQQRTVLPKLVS
Source text: as §1

AKT2 = AKT2 (Homo sapiens, UniProt P31751)
Source text: as §1

SYK = SYK (Homo sapiens, UniProt P43405)
Source text: as §1

[1] = target: T6, ABL1(F317I)-phosphorylated (Homo sapiens, UniProt P00519, F317I)
T6 construct: phosphorylated
Source text: as §1

ABL1-nonphosphorylated = target: T7, ABL1-nonphosphorylated (Homo sapiens, UniProt P00519)
T7 construct: nonphosphorylated
Source text: as §1

NEK3 = NEK3 (Homo sapiens, UniProt P51956)
Source text: as §1

CAMK4 = CAMK4 (Homo sapiens, UniProt Q16566)
Source text: as §1

p38-beta = target: T8, p38-beta (Homo sapiens, UniProt Q15759)
T8 construct: gene MAPK11
Source text: as §1

NEK2 = NEK2 (Homo sapiens, UniProt P51955)
NEK2, sequence (P51955 whole entry): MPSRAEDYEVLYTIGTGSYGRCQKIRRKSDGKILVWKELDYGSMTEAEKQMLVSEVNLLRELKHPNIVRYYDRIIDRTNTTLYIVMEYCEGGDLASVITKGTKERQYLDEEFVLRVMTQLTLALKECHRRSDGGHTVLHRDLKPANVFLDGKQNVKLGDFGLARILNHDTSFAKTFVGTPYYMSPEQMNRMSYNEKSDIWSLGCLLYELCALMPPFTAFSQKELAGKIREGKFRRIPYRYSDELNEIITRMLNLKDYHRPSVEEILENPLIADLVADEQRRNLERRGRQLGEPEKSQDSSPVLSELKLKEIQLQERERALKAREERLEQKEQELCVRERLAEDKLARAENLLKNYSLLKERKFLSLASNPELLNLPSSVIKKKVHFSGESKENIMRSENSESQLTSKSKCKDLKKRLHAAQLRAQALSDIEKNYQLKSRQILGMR
Source text: as §1

MLK1 = target: T9, MLK1 (Homo sapiens, UniProt P80192)
T9 construct: gene MAP3K9
T9 sequence (P80192 whole entry): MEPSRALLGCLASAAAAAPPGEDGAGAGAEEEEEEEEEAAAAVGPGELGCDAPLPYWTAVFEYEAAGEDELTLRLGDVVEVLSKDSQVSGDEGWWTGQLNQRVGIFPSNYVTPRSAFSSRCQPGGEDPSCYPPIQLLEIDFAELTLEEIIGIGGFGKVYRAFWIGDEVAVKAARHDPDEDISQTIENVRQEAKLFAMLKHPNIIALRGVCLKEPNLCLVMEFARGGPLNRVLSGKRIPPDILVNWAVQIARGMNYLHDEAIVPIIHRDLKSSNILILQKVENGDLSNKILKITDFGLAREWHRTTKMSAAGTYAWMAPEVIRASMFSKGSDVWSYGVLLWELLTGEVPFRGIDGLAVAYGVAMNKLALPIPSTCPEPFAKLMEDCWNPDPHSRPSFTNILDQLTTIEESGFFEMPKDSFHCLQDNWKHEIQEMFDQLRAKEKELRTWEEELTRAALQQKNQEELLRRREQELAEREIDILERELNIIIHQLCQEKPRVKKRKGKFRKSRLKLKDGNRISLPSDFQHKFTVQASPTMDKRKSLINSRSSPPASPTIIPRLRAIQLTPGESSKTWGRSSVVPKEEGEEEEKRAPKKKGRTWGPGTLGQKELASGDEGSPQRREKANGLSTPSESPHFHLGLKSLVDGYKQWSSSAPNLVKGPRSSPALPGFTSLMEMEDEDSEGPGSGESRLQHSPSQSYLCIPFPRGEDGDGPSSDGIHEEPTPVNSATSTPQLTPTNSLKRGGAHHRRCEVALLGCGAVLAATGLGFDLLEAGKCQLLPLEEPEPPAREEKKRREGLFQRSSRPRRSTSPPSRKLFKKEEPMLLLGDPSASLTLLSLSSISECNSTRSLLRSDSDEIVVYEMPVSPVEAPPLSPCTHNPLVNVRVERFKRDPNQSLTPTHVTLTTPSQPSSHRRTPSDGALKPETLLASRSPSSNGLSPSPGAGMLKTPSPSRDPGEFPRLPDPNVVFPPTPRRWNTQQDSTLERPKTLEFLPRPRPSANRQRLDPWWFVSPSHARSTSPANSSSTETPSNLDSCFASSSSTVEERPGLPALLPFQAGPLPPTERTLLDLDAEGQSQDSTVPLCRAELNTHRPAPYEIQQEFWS
Source text: as §1

RIPK1 = RIPK1 (Homo sapiens, UniProt Q13546)
Source text: as §1

[2] = target: T10, ABL1(E255K)-phosphorylated (Homo sapiens, UniProt P00519, E255K)
T10 construct: phosphorylated
Source text: as §1

PKAC-beta = target: T11, PKAC-beta (Homo sapiens, UniProt P22694)
T11 construct: gene PRKACB
Source text: as §1

[3] = target: T12, ABL1(T315I)-phosphorylated (Homo sapiens, UniProt P00519, T315I)
T12 construct: phosphorylated
Source text: as §1

PKNB(M.tuberculosis) = PKNB(M.tuberculosis) (Mycobacterium tuberculosis, UniProt P9WI81)

C=CC(=O)Nc1cc(-n2c(=O)ccc3cnc4ccc(-n5cccn5)cc4c32)ccc1C [CHMFL-BTK-11] was tested, and the remaining binding at 1 µM (PFPK5(P.falciparum)) was 100%, the remaining binding at 1 µM (ABL1-phosphorylated) was 78% and the remaining binding at 1 µM (PRP4) was 93%. For the same molecule, the remaining binding at 1 µM (FLT3(R834Q)) was 99%, the remaining binding at 1 µM (PIK3CA(H1047Y)) was 82% and the remaining binding at 1 µM (ERK8) was 99%. The remaining binding at 1 µM (BRSK1) was 100%, the remaining binding at 1 µM (PIP5K1A) was 100% and the remaining binding at 1 µM (AMPK-alpha1) was 100%. For the same molecule, the remaining binding at 1 µM (DYRK2) was 55%, the remaining binding at 1 µM (AKT2) was 100% and the remaining binding at 1 µM (SYK) was 93%. It also gave a remaining binding at 1 µM [1] of 100%, a remaining binding at 1 µM (ABL1-nonphosphorylated) of 74% and a remaining binding at 1 µM (NEK3) of 87%. The remaining binding at 1 µM (CAMK4) was 91%, the remaining binding at 1 µM (p38-beta) was 100% and the remaining binding at 1 µM (NEK2) was 100%. For the same molecule, the remaining binding at 1 µM (MLK1) was 100%, the remaining binding at 1 µM (RIPK1) was 90% and the remaining binding at 1 µM [2] was 92%. The remaining binding at 1 µM (PKAC-beta) was 100%, the remaining binding at 1 µM [3] was 100% and the remaining binding at 1 µM (PKNB(M.tuberculosis)) was 69%.
